# In the supplement of paper PMC11451515:
# Tested on: NOMO1
# Assay: cell viability relative to DMSO control; higher = less cytotoxic
# Conditions: 48 h
# How it was run: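 NOMO1, SEM and P12-Ichikawa leukemia cells spent at least four passages adapting to each medium before use. They were seeded at 500 cells/well (NOMO1, SEM) or 1000 cells/well (P12-Ichikawa) in 5 μl in 1536-well plates and pin-dosed with library compounds in DMSO at 11 threefold steps from 47 μM down to 0.79 nM. After 48 h at 37°C, CellTiter-Glo One luminescence was read. Viability is reported as a percentage of the DMSO wells on each plate, with cell-free wells as background.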
# [1] = HPLM + 10% dialyzed FBS, 0.000781 µM
# [2] = HPLM + 10% dialyzed FBS, 0.00234 µM
# [3] = HPLM + 10% dialyzed FBS, 0.00702 µM
# [4] = HPLM + 10% dialyzed FBS, 0.0211 µM
# [5] = HPLM + 10% dialyzed FBS, 0.0632 µM
# [6] = HPLM + 10% dialyzed FBS, 0.19 µM
# [7] = HPLM + 10% dialyzed FBS, 0.569 µM
# [8] = HPLM + 10% dialyzed FBS, 1.71 µM
# [9] = HPLM + 10% dialyzed FBS, 5.12 µM
# [10] = HPLM + 10% dialyzed FBS, 15.4 µM
# [11] = HPLM + 10% dialyzed FBS, 46.1 µM
# [12] = RPMI 5 mM glucose + 10% FBS, 0.000781 µM
# [13] = RPMI 5 mM glucose + 10% FBS, 0.00234 µM
# [14] = RPMI 5 mM glucose + 10% FBS, 0.00702 µM
# [15] = RPMI 5 mM glucose + 10% FBS, 0.0211 µM
# [16] = RPMI 5 mM glucose + 10% FBS, 0.0632 µM
# [17] = RPMI 5 mM glucose + 10% FBS, 0.19 µM
# [18] = RPMI 5 mM glucose + 10% FBS, 0.569 µM
# [19] = RPMI 5 mM glucose + 10% FBS, 1.71 µM
# [20] = RPMI 5 mM glucose + 10% FBS, 5.12 µM
# [21] = RPMI 5 mM glucose + 10% FBS, 15.4 µM
# [22] = RPMI 5 mM glucose + 10% FBS, 46.1 µM
# [23] = RPMI 5 mM glucose + 10% dialyzed FBS, 0.000781 µM
# [24] = RPMI 5 mM glucose + 10% dialyzed FBS, 0.00234 µM
# [25] = RPMI 5 mM glucose + 10% dialyzed FBS, 0.00702 µM
# [26] = RPMI 5 mM glucose + 10% dialyzed FBS, 0.0211 µM
# [27] = RPMI 5 mM glucose + 10% dialyzed FBS, 0.0632 µM
# [28] = RPMI 5 mM glucose + 10% dialyzed FBS, 0.19 µM
# [29] = RPMI 5 mM glucose + 10% dialyzed FBS, 0.569 µM
# [30] = RPMI 5 mM glucose + 10% dialyzed FBS, 1.71 µM
# [31] = RPMI 5 mM glucose + 10% dialyzed FBS, 5.12 µM
# [32] = RPMI 5 mM glucose + 10% dialyzed FBS, 15.4 µM
# [33] = RPMI 5 mM glucose + 10% dialyzed FBS, 46.1 µM
SMILES,cell viability [1] [%],cell viability [2] [%],cell viability [3] [%],cell viability [4] [%],cell viability [5] [%],cell viability [6] [%],cell viability [7] [%],cell viability [8] [%],cell viability [9] [%],cell viability [10] [%],cell viability [11] [%],cell viability [12] [%],cell viability [13] [%],cell viability [14] [%],cell viability [15] [%],cell viability [16] [%],cell viability [17] [%],cell viability [18] [%],cell viability [19] [%],cell viability [20] [%],cell viability [21] [%],cell viability [22] [%],cell viability [23] [%],cell viability [24] [%],cell viability [25] [%],cell viability [26] [%],cell viability [27] [%],cell viability [28] [%],cell viability [29] [%],cell viability [30] [%],cell viability [31] [%],cell viability [32] [%],cell viability [33] [%]
CCOc1cc(C(=O)Nc2ccc(Cl)c(-c3nc4ccccc4[nH]3)c2)cc(OCC)c1OCC,79.3,104,101,102,104,108,105,115,107,116,63.3,72.8,90.6,81.9,92.8,93,90.3,83.5,83.2,88.2,98.1,59.1,83.8,84.3,104,84.6,84.6,90.3,87.3,95,109,101,50.1
C/C1=C/C(=C(/CNC(=O)C2=CC(=CC3=C2C=N[N]3C4CCCC4)C5=CC=C(CN6CCOCC6)C=C5)C(=O)N1)C,,,,,,,,,,,,110,125,118,120,132,127,127,124,104,117,22,124,118,128,123,125,111,131,125,125,112,13.5
CCCCN1CCC(CNC(=O)c2c3n(c4ccccc24)CCCO3)CC1,104,107,111,115,112,114,132,123,125,110,89.4,95.8,98.5,103,111,118,109,117,106,108,117,90.5,96.5,110,105,114,110,106,117,104,113,124,90.1
COc1cc2c(cc1O)CCC1C2CC[C@@]2(C)C1CC[C@@H]2O (stereo not given in full),,,,,,,,,,,,117,111,103,110,121,120,111,101,84.2,25.1,32.6,118,129,117,116,121,115,119,115,63.8,33.9,40.4
Clc1ccc(CCC(Cn2ccnc2)Sc2c(Cl)cccc2Cl)cc1 (stereo not given),87.3,85.2,98,103,107,90.8,98.5,87,93.9,93.6,90.4,77.8,80.1,86.7,83.4,89.2,88.2,86.9,85.5,85.5,81.7,79.8,87.5,83.4,94.1,89.5,95.2,94.7,90.1,96.2,83.8,102,70.7
CC(C)[C@H](C(=O)Nc1ccc(C(=O)NO)cc1)c1ccccc1,,,,,,,,,,,,113,108,122,138,119,131,125,118,19,8.3,8.21,,,,,,,,,,,
Cc1nc2ccc(CN(C)c3ccc(C(=O)N[C@@H](CCC(=O)O)C(=O)O)s3)cc2c(=O)[nH]1,110,120,101,111,99,53.3,46,44.8,41.6,41.6,38.7,120,113,105,112,100,114,94.5,72.2,71.8,75.7,73.1,116,109,104,120,108,70.9,37.6,25.6,33,33.1,32.1
CN(C)C(=O)[C@H](O)[C@H](Cc1ccccc1)NC(=O)c1cc2cc(Cl)ccc2[nH]1,107,107,115,122,122,132,144,145,171,145,138,111,105,103,103,124,126,127,109,123,121,112,83.9,109,109,109,113,115,132,133,118,136,126
